PubChem BioAssay (NCI)
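Protocol summary: plate cells (96-well), add compound at 5 concentrations, incubate 48 h, interpolate endpoints linearly. TGI: total growth inhibition.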

Assays:
Test in all cases: NCI-60 cell line screen, 48 h
786-0 renal = test system: 786-0 renal
A498 renal = test system: A498 renal
A549 NSCLC = test system: A549 NSCLC
ACHN renal = test system: ACHN renal
CAKI-1 renal = test system: CAKI-1 renal
CCRF-CEM leukemia = test system: CCRF-CEM leukemia
DMS 114 small cell lung = test system: DMS 114 small cell lung
DMS 273 small cell lung = test system: DMS 273 small cell lung
EKVX NSCLC = test system: EKVX NSCLC
HCC-2998 colon = test system: HCC-2998 colon
HCT-116 colon = test system: HCT-116 colon
HCT-15 colon = test system: HCT-15 colon
HL-60(TB) leukemia = test system: HL-60(TB) leukemia
HOP-62 NSCLC = test system: HOP-62 NSCLC
HT29 colon = test system: HT29 colon
IGROV1 ovarian = test system: IGROV1 ovarian
K-562 leukemia = test system: K-562 leukemia
KM12 colon = test system: KM12 colon
KM20L2 colon = test system: KM20L2 colon
LOX IMVI melanoma = test system: LOX IMVI melanoma
M14 melanoma = test system: M14 melanoma
M19-MEL melanoma = test system: M19-MEL melanoma
MALME-3M melanoma = test system: MALME-3M melanoma
MOLT-4 leukemia = test system: MOLT-4 leukemia
NCI-H226 lung = test system: NCI-H226 lung
NCI-H23 lung = test system: NCI-H23 lung
NCI-H460 lung = test system: NCI-H460 lung
NCI-H522 lung = test system: NCI-H522 lung
OVCAR-3 ovarian = test system: OVCAR-3 ovarian
OVCAR-4 ovarian = test system: OVCAR-4 ovarian
OVCAR-5 ovarian = test system: OVCAR-5 ovarian
OVCAR-8 ovarian = test system: OVCAR-8 ovarian
RPMI-8226 leukemia = test system: RPMI-8226 leukemia
RXF 393 renal = test system: RXF 393 renal
SF-268 CNS = test system: SF-268 CNS
SF-295 CNS = test system: SF-295 CNS
SF-539 CNS = test system: SF-539 CNS
SK-MEL-2 melanoma = test system: SK-MEL-2 melanoma
SK-MEL-28 melanoma = test system: SK-MEL-28 melanoma
SK-MEL-5 melanoma = test system: SK-MEL-5 melanoma
SK-OV-3 ovarian = test system: SK-OV-3 ovarian
SN12C renal = test system: SN12C renal
SNB-19 CNS = test system: SNB-19 CNS
SNB-75 CNS = test system: SNB-75 CNS
SNB-78 CNS = test system: SNB-78 CNS
SR leukemia = test system: SR leukemia
SW-620 colon = test system: SW-620 colon
TK-10 renal = test system: TK-10 renal
U251 CNS = test system: U251 CNS
UACC-257 melanoma = test system: UACC-257 melanoma
UACC-62 melanoma = test system: UACC-62 melanoma
UO-31 renal = test system: UO-31 renal
BT-549 breast = test system: BT-549 breast
COLO 205 colon = test system: COLO 205 colon
DU-145 prostate = test system: DU-145 prostate
HOP-92 NSCLC = test system: HOP-92 NSCLC
HS 578T breast = test system: HS 578T breast
MCF7 breast = test system: MCF7 breast
MDA-MB-231 breast = test system: MDA-MB-231 breast
MDA-MB-435 = test system: MDA-MB-435
MDA-N = test system: MDA-N
NCI/ADR-RES ovarian = test system: NCI/ADR-RES ovarian
PC-3 prostate = test system: PC-3 prostate
T-47D breast = test system: T-47D breast

**Q.** How did the TGI (786-0 renal) turn out when `CSc1nc(=Nc2ccccc2)sn1-c1ccccc1` was run?
**A.** Its TGI is 34.4 µM.

**Q.** And the TGI (A498 renal)?
**A.** The TGI was 38.7 µM.

**Q.** And the TGI (A549 NSCLC)?
**A.** Its TGI is 44 µM.

**Q.** And the TGI (ACHN renal)?
**A.** Its TGI is 56 µM.

**Q.** And the TGI (CAKI-1 renal)?
**A.** Its TGI is 35.1 µM.

**Q.** And the TGI (CCRF-CEM leukemia)?
**A.** Its TGI is 40 µM.

**Q.** And the TGI (DMS 114 small cell lung)?
**A.** The TGI was 16.1 µM.

**Q.** What about the TGI (DMS 273 small cell lung) of the same molecule?
**A.** Its TGI is 22.8 µM.

**Q.** What about the TGI (EKVX NSCLC) of the same molecule?
**A.** The TGI was greater than 100 µM.

**Q.** What about the TGI (HCC-2998 colon) of the same molecule?
**A.** Its TGI is 38.1 µM.

**Q.** And the TGI (HCT-116 colon)?
**A.** Its TGI is 32.5 µM.

**Q.** And the TGI (HCT-15 colon)?
**A.** Its TGI is 30.4 µM.

**Q.** What about the TGI (HL-60(TB) leukemia) of the same molecule?
**A.** Its TGI is 22.6 µM.

**Q.** And the TGI (HOP-62 NSCLC)?
**A.** The TGI was 31.3 µM.

**Q.** What about the TGI (HT29 colon) of the same molecule?
**A.** Its TGI is 11.8 µM.

**Q.** What about the TGI (IGROV1 ovarian) of the same molecule?
**A.** The TGI was 40 µM.

**Q.** And the TGI (K-562 leukemia)?
**A.** Its TGI is 30.1 µM.

**Q.** What about the TGI (KM12 colon) of the same molecule?
**A.** Its TGI is 44.2 µM.

**Q.** What about the TGI (KM20L2 colon) of the same molecule?
**A.** The TGI was 28.4 µM.

**Q.** What about the TGI (LOX IMVI melanoma) of the same molecule?
**A.** Its TGI is 32 µM.

**Q.** What about the TGI (M14 melanoma) of the same molecule?
**A.** Its TGI is 22.5 µM.

**Q.** And the TGI (M19-MEL melanoma)?
**A.** Its TGI is 23 µM.

**Q.** What about the TGI (MALME-3M melanoma) of the same molecule?
**A.** Its TGI is 99.1 µM.

**Q.** And the TGI (MOLT-4 leukemia)?
**A.** The TGI was 96 µM.

**Q.** And the TGI (NCI-H226 lung)?
**A.** Its TGI is 36.2 µM.

**Q.** What about the TGI (NCI-H23 lung) of the same molecule?
**A.** The TGI was 36 µM.

**Q.** And the TGI (NCI-H460 lung)?
**A.** Its TGI is 16.9 µM.

**Q.** What about the TGI (NCI-H522 lung) of the same molecule?
**A.** Its TGI is 13.2 µM.

**Q.** And the TGI (OVCAR-3 ovarian)?
**A.** Its TGI is 38.5 µM.

**Q.** And the TGI (OVCAR-4 ovarian)?
**A.** Its TGI is 23.6 µM.

**Q.** And the TGI (OVCAR-5 ovarian)?
**A.** The TGI was 48 µM.

**Q.** And the TGI (OVCAR-8 ovarian)?
**A.** The TGI was 46.3 µM.

**Q.** What about the TGI (RPMI-8226 leukemia) of the same molecule?
**A.** The TGI was 40.5 µM.

**Q.** What about the TGI (RXF 393 renal) of the same molecule?
**A.** The TGI was 31.3 µM.

**Q.** And the TGI (SF-268 CNS)?
**A.** Its TGI is 54 µM.

**Q.** What about the TGI (SF-295 CNS) of the same molecule?
**A.** The TGI was 49.2 µM.

**Q.** What about the TGI (SF-539 CNS) of the same molecule?
**A.** Its TGI is 36.9 µM.

**Q.** And the TGI (SK-MEL-2 melanoma)?
**A.** The TGI was 76.9 µM.

**Q.** What about the TGI (SK-MEL-28 melanoma) of the same molecule?
**A.** The TGI was 30.2 µM.

**Q.** What about the TGI (SK-MEL-5 melanoma) of the same molecule?
**A.** The TGI was 23.2 µM.

**Q.** What about the TGI (SK-OV-3 ovarian) of the same molecule?
**A.** The TGI was 62.2 µM.

**Q.** What about the TGI (SN12C renal) of the same molecule?
**A.** The TGI was 39 µM.

**Q.** And the TGI (SNB-19 CNS)?
**A.** The TGI was 56.7 µM.

**Q.** And the TGI (SNB-75 CNS)?
**A.** Its TGI is 55.8 µM.

**Q.** And the TGI (SNB-78 CNS)?
**A.** The TGI was 47 µM.

**Q.** What about the TGI (SR leukemia) of the same molecule?
**A.** Its TGI is 81.1 µM.

**Q.** And the TGI (SW-620 colon)?
**A.** The TGI was 26.1 µM.

**Q.** And the TGI (TK-10 renal)?
**A.** The TGI was 60.5 µM.

**Q.** What about the TGI (U251 CNS) of the same molecule?
**A.** Its TGI is 33.4 µM.

**Q.** What about the TGI (UACC-257 melanoma) of the same molecule?
**A.** The TGI was 43.9 µM.

**Q.** And the TGI (UACC-62 melanoma)?
**A.** The TGI was 18 µM.

**Q.** What about the TGI (UO-31 renal) of the same molecule?
**A.** Its TGI is 39.8 µM.

**Q.** What does the source list for `C=C(C)C(CC=C(C)C)Cc1c(O)cc(OC)c2c1OC(c1ccc(O)cc1O)C(O)C2=O` (stereo unspecified)?
**A.** TGI (786-0 renal): 32.3 µM; TGI (A498 renal): 30.7 µM; TGI (A549 NSCLC): 39.4 µM; TGI (ACHN renal): 43.2 µM; TGI (BT-549 breast): 28.5 µM; TGI (CAKI-1 renal): 26.6 µM; TGI (CCRF-CEM leukemia): > 100 µM; TGI (COLO 205 colon): 30 µM; TGI (DU-145 prostate): 32.4 µM; TGI (EKVX NSCLC): 31.1 µM; TGI (HCC-2998 colon): 30.6 µM; TGI (HCT-116 colon): 34.5 µM; TGI (HCT-15 colon): 31.1 µM; TGI (HL-60(TB) leukemia): > 100 µM; TGI (HOP-62 NSCLC): 31 µM; TGI (HOP-92 NSCLC): 28 µM; TGI (HS 578T breast): 79.4 µM; TGI (HT29 colon): 38.2 µM; TGI (IGROV1 ovarian): 28.1 µM; TGI (K-562 leukemia): > 100 µM; TGI (KM12 colon): 24.6 µM; TGI (LOX IMVI melanoma): 36.1 µM; TGI (M14 melanoma): 36.5 µM; TGI (MALME-3M melanoma): 31.8 µM; TGI (MCF7 breast): 27 µM; TGI (MDA-MB-231 breast): 34.1 µM; TGI (MDA-MB-435): 35.9 µM; TGI (MDA-N): 28.1 µM; TGI (MOLT-4 leukemia): > 100 µM; TGI (NCI-H226 lung): 44.7 µM; TGI (NCI-H23 lung): 33.6 µM; TGI (NCI-H460 lung): 33.9 µM; TGI (NCI-H522 lung): 34.2 µM; TGI (NCI/ADR-RES ovarian): 55.8 µM; TGI (OVCAR-3 ovarian): 34.8 µM; TGI (OVCAR-4 ovarian): 38.4 µM; TGI (OVCAR-5 ovarian): 32.4 µM; TGI (OVCAR-8 ovarian): 31.2 µM; TGI (PC-3 prostate): 26.3 µM; TGI (RPMI-8226 leukemia): > 100 µM; TGI (RXF 393 renal): 43.6 µM; TGI (SF-268 CNS): 61.1 µM; TGI (SF-295 CNS): 28.2 µM; TGI (SF-539 CNS): 31.4 µM; TGI (SK-MEL-2 melanoma): 34.7 µM; TGI (SK-MEL-28 melanoma): 56.2 µM; TGI (SK-MEL-5 melanoma): 33.1 µM; TGI (SK-OV-3 ovarian): 30.5 µM; TGI (SN12C renal): 35.2 µM; TGI (SNB-19 CNS): 29.3 µM; TGI (SNB-75 CNS): 31.5 µM; TGI (SR leukemia): > 100 µM; TGI (SW-620 colon): 30.3 µM; TGI (T-47D breast): 32.4 µM; TGI (TK-10 renal): 38.4 µM; TGI (U251 CNS): 27.6 µM; TGI (UACC-257 melanoma): 32.1 µM; TGI (UACC-62 melanoma): 36.4 µM; TGI (UO-31 renal): 29.5 µM
